Results on one molecule are retold here after patent publication US6956046B2, “4-hydroxypiperidine derivatives having analgesic activity” (priority 2001, dated 2005).

Data set [1] relates to Wistar Hannover female rats. As to the kind of experiment: Toxicological study, oral, rats. The note with it: oral 40 mg/kg/day, 6 week-old female rats. It is filed as in vivo, rat. How it is done:
The compounds of Example 8 or Example 12 were orally given to 6 week-old Wistar Hannover female rats at 40 mg/kg/day.
The compound of Example 29 was orally given to 6 week-old Wistar Hannover female rats at 400 mg/Kg/day once daily for 14 days, respectively.

In data set [2] the test system is human-drug metabolizing enzymes. As to the kind of experiment: Inhibitory effect on human-drug metabolizing enzymes. It counts as in vitro ADME.
The nature of data set [3]: Pharmacokinetics: plasma concentration after a single oral administration. It counts as in vivo. The note with it: male rhesus monkey. From the text:
The compound of Example 12 or Example 29 were studied about time-course profile of plasma concentration after a single oral administration to 3 or 4 year-old male rhesus monkey. […] Therefore, it can be considered to cause unlikely the drug-drug interaction by the compounds. […] Therefore, it can be considered that the compounds are unlikely metabolized by first pass effect.

Data set [4] is described as follows: Metabolic stability in dog liver microsomes and hepatocytes. It counts as in vitro ADME.
Data set [5] can be described thus: Metabolic stability in human liver microsomes and hepatocytes. It is filed as in vitro ADME.
The subject of the next data set is rhesus male monkey. Briefly: Holter ECG test. It is filed as in vivo. Conditions: oral 80 mg/Kg, 4 year-old rhesus male monkey. How it is done:
In Holter ECG test, the compound of Example 12 or Example 29 were orally given to 4 year-old rhesus male monkey at 80 mg/Kg. There was no effect in electrocardiogram.

The subject of a further data set is rhesus male monkeys. Briefly: Toxicological study, oral, 14 days, monkeys. Conditions: oral 20 mg/Kg/day once daily for 14 days. It counts as in vivo, rhesus monkey. The method, then:
The compound Example 12 or Example 29 were orally given to 3 year-old rhesus male monkeys at 20 mg/Kg/day and 40 mg/Kg/day, respectively, once daily for 14 days.

For data set [6], the system named is rat model made by loosely constricting the sciatic nerve. As to the kind of experiment: Efficacy in the rat model made by loosely constricting the sciatic nerve (von Frey response threshold). It is filed as in vivo. The note with it: one hour after dosing. How it is done: [Efficacy in the Rat Model Made by Loosely Constricting the Sciatic Nerve]
Preparation of the rat pain model based on the constriction of the sciatic nerve was performed by the method introduced by Bennett et al. (“Pain,” 33:87, 1988). Specifically, the rat was anesthetized with i.p. injection of pentobarbital sodium at 40 mg/kg; the overlying skin was cut open; and the left biceps femoris muscle was bluntly separated. The sciatic nerve was isolated from surrounding tissues; it was gently constricted at four sites about 1 mm apart from each other by the use of surgical gut sutures (4-0 or 3-0 chromic gut); the operated part was closed; and the rat was returned to its cage for further feeding. For the rat belonging to the sham-surgery group, the same operation was performed except that the sciatic nerve was left untouched. Two weeks after the surgery, the response threshold to a mechanical stimulus consisting of touch with von Frey filaments was determined. The test proceeded as follows: the test compound was orally applied to the rat having the sciatic nerve constricted; one hour later, von Frey hairs were applied against the foot pad (spots ranging from heel to the mid-point of foot) one after another in an ascending order of their stiffness; if the rat raises its foot when a certain von Frey hair was applied, the stimulus intensity of that hair was taken as the response threshold (maximum stimulus intensity being 28.84 g).

In data set [7] the test system is formalin-induced nociceptive response in rats. Briefly: Inhibitory effect on the formalin-induced nociceptive response in rats. It is filed as in vivo, rat. Conditions: oral, 30 minutes before subcutaneous formalin; probit method. The method, then:
[Inhibitory Effect on the Formalin-induced Nociceptive Response in Rats]
The experiment was undertaken by the method disclosed by Doak et al., Eur. J. Pharmacol. 281:311, 1995. Specifically, 50 μL of 0.5% formalin solution was subcutaneously injected into the left foot pad of the rat, and then each behavior of the rat consisting of the licking or biting of the pad immediately following the injection was checked with a stopwatch for its duration, and its cumulative duration was recorded at five minute intervals. The nociceptive response observed in 10 minutes after the injection was termed a first-phase response while the response observed between 10 minutes and 45 minutes after the injection was termed a second-phase response. The test compound was orally applied to the rat 30 minutes before the subcutaneous injection of formalin. Then, the inhibitory effect of the test compound on the nociceptive response induced by the formalin injection was calculated according to the following formula and 30% inhibition dose (ED30 value) was determined by the probit method. To mention, for illustration, ED30 value of carbamazepine was 27 mg/kg. Percent inhibition (%)=[(PRcontrol−PRtest)/PRcontrol]×100 wherein PRtest is the response time (sec) of the test group which received formalin and the test compound, while PRcontol is the response time of the control group which. received formalin and vehicle.

The nature of data set [8]: Metabolic stability in monkey liver microsomes and hepatocytes. It is filed as in vitro ADME.
A short description of data set [9]: Metabolic stability in rat liver microsomes and hepatocytes. It is filed as in vitro ADME.

With `Cl.N#Cc1ccc(CCN2CCC(O)(COc3ccc(C(=O)O)cc3)CC2)cc1` [Example 12, 4-{1-[2-(4-cyanophenyl)ethyl]-4-hydroxypiperidin-4-ylmethoxy}benzoic acid hydrochloride], the general appearance result in [1] was “no abnormalities”. The survival result in data set [1] (examination period) was “all the rats survived”; in the data set on rhesus male monkeys (until 24 hours after final administration), “All the monkeys survived”. In data set [2], the “inhibitory effect on human-drug metabolizing enzymes” value was “no serious inhibitory effect”. For the same molecule, in data set [3], the bioavailability result was “very good bioavailability”. In data set [3], the “maximum plasma concentration (Cmax) and area under the plasma concentration-time curve (AUC) versus dose” value is given as “increased almostly in proportion to the doses”. Moreover, the metabolic stability entry in data set [4], in data set [5], in data set [8] and in [9] was “metabolically stable” in each case. Moreover, in the data set on rhesus male monkey, the effect in electrocardiogram entry is reported as “no effect”. Moreover, the “general appearances, body weight gains and food consumptions” value with rhesus male monkeys was “no abnormalities”. Moreover, the “hematology, biochemistry, organ weight, and histopathology” value with rhesus male monkeys is listed as “No abnormal findings”. Further, the “Mean threshold (g) Injured foot (left)” value in [6] (dose 1 mg/kg oral) is 7.96 g; in [6] (dose 3 mg/kg oral) it was 8.92 g; in data set [6] (dose 10 mg/kg oral) it was 10.96 g. Besides, the “Mean threshold (g) Normal foot (right)” value came to 14.29 g in data set [6] (dose 1 mg/kg oral), 14.71 g in data set [6] (dose 3 mg/kg oral) and 14.29 g in data set [6] (dose 10 mg/kg oral). In addition, the “ED30 value (30% inhibition dose)” value in data set [7] stood at 2.0 mg/kg.
